Data published in US10392630B2, “Plants having increased tolerance to herbicides” (BASF AGRO B.V., priority 2013, dated 2019).
Where a chain is given by its changes, count along the chain named.

How the values were obtained:
Test in all cases: biochemical
[1] = biological target: T1, Amaranthus mutant PPO (AMARE) (Amaranthus tuberculatus, UniProt Q0NZW9, R128I)
T1 sequence (Q0NZW9 1-534 R128I): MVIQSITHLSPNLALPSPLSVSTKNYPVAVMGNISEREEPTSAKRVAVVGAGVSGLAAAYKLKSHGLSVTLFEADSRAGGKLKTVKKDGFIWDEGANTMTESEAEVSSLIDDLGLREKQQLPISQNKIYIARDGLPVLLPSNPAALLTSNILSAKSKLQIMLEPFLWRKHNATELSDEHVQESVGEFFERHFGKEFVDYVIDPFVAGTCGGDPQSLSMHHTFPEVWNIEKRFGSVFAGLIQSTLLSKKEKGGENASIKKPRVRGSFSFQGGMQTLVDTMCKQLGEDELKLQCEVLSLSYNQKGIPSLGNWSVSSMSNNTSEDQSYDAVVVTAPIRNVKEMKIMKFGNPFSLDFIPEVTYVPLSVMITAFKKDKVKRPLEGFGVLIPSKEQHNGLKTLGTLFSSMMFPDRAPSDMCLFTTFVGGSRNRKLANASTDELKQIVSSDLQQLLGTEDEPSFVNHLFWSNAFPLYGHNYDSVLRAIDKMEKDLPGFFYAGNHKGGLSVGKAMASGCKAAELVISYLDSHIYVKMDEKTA

[2] = biological target: T2, Amaranthus mutant PPO (AMARE) (Amaranthus tuberculatus, UniProt Q0NZW9, R128A)
T2 sequence (Q0NZW9 1-534 R128A): T1 sequence (Q0NZW9 1-534 R128I) with I128A

[3] = biological target: T3, Amaranthus mutant PPO (AMARE) (Amaranthus tuberculatus, UniProt Q0NZW9, F420L)
T3 sequence (Q0NZW9 1-534 F420L): T1 sequence (Q0NZW9 1-534 R128I) with I128R, F420L

[4] = biological target: T4, Amaranthus mutant PPO (AMARE) (Amaranthus tuberculatus, UniProt Q0NZW9, R128L)
T4 sequence (Q0NZW9 1-534 R128L): T1 sequence (Q0NZW9 1-534 R128I) with I128L

[5] = biological target: T5, Amaranthus mutant PPO (AMARE) (Amaranthus tuberculatus, UniProt Q0NZW9, F420M)
T5 sequence (Q0NZW9 1-534 F420M): T1 sequence (Q0NZW9 1-534 R128I) with I128R, F420M

CC(C)N(C)S(=O)(=O)NC(=O)c1cc(-n2c(=O)cc(C(F)(F)F)n(C)c2=O)c(F)cc1Cl [saflufenacil]
IC50 [1]: 365 nM | IC50 [2]: 129 nM | IC50 [3]: 7200 nM | IC50 [4]: 222 nM | IC50 [5]: 677 nM
